# Laboratory results from US20150105252A1, “SUBSTITUTED PYRAZOLES AS HERBICIDES” (E I DU PONT DE NEMOURS AND COMPANY, priority 2013, published 2015).
# Key:
# [1] = test system: ryegrass, Italian; assay: Test C postemergence; format: in vivo, Lolium multiflorum; settings: postemergence
# Outline: (§1)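 Herbicidal effect is expressed as percent visual control (0–100) judged against untreated plants 13 to 15 days after treatment in the greenhouse. Preemergence pots contained seeds in a soil–sand blend; postemergence plants, 2–18 cm tall, grew in peat-based planting medium.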
# [2] = test system: rice; assay: Test B flood; format: in vivo, Oryza sativa; settings: 250 g ai/ha, visual rating on 0 to 100 scale (0 no effect, 100 complete control), 13 to 15 days
# Outline: (§2)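 Flooded-pot test: compound dosed into 3 cm of standing water above soil when plants had two leaves. Visual control ratings (0–100) versus untreated plants after 13–15 d.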
# [3] = test system: wheat; assay: Test C preemergence; format: in vivo, Triticum aestivum
# Outline: as §1
# [4] = test system: lambsquarters; assay: Test C preemergence; format: in vivo, Chenopodium album
# Outline: as §1
# [5] = test system: ragweed; assay: Test C preemergence; format: in vivo, Ambrosia elation
# Outline: as §1
# [6] = test system: pigweed; assay: Test A preemergence; format: in vivo, Amaranthus retroflexus; settings: preemergence, 125 g ai/ha, visual injury approx. 10 days after treatment
# Outline: (§3)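 Growth medium: loam soil blended with sand. Preemergence treatment used a directed soil spray right after planting; postemergence treatment targeted seedlings at one to two leaves (2–10 cm height). Response was judged by eye relative to untreated plants about 10 days later on a 0–100 control scale.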
# [7] = test system: wheat; assay: Test A postemergence; format: in vivo, Triticum aestivum; settings: Postemergence
# Outline: as §3
# [8] = test system: kochia; assay: Test C postemergence; format: in vivo, Kochia scoparia; settings: for Plant response rating (scale of 0 to 100 where 0 is no effect and 100 is complete control), Kochia: Postemergence, 31 g ai/ha, visually evaluated after 13 to 15 days; for Kochia plant response rating / Plant response rating, Kochia: postemergence; for Kochia plant response rating: 62 g ai/ha, scale 0 to 100
# Outline: as §1
# [9] = test system: lambsquarters; assay: Test C postemergence; format: in vivo, Chenopodium album; settings: for Plant response rating (scale of 0 to 100 where 0 is no effect and 100 is complete control), Lambsquarters: Postemergence, 31 g ai/ha, visually evaluated after 13 to 15 days; for Lambsquarters plant response rating / Plant response rating, Lambsquarters: postemergence; for Lambsquarters plant response rating: 62 g ai/ha, scale 0 to 100
# Outline: as §1
# [10] = test system: crabgrass, large; assay: Test C postemergence; format: in vivo, Digitaria sanguinalis; settings: for Plant response rating (scale of 0 to 100 where 0 is no effect and 100 is complete control), Crabgrass, Large: Postemergence, 31 g ai/ha, visually evaluated after 13 to 15 days; for Crabgrass, Large plant response rating / Plant response rating, Crabgrass, Large: postemergence; for Crabgrass, Large plant response rating: 62 g ai/ha, scale 0 to 100
# Outline: as §1
# [11] = test system: corn; assay: Test C preemergence; format: in vivo, Zea mays
# Outline: as §1
# [12] = test system: galium; assay: Test C preemergence; format: in vivo, Galium aparine
# Outline: as §1
# [13] = test system: sedge, umbrella; assay: Test B flood; format: in vivo, Cyperus difformis; settings: 250 g ai/ha, visual rating on 0 to 100 scale (0 no effect, 100 complete control), 13 to 15 days
# Outline: as §2
# [14] = 250 g ai/ha, scale 0 to 100 (0 no effect, 100 complete control)
# [15] = 125 g ai/ha, scale 0 to 100, 0 no effect, 100 complete control
# [16] = Preemergence, rate head not shown (block before 16 g ai/ha), scale 0 to 100
# [17] = preemergence, 62 g ai/ha, scale 0 to 100 (0 no effect, 100 complete control), 13 to 15 days
# [18] = preemergence, 125 g ai/ha, 13 to 15 days, scale 0 to 100, 0 = no effect, 100 = complete control
# [19] = preemergence, 250 g ai/ha, scale 0 to 100, 0 is no effect, 100 is complete control
# [20] = 125 g ai/ha, 0 to 100 scale, 0 no effect, 100 complete control
# [21] = 500 g ai/ha, 0 to 100 scale (0 no effect, 100 complete control)
# [22] = preemergence, 31 g ai/ha, visual rating, scale 0 to 100 (0 no effect, 100 complete control), 13 to 15 days
compound,measurement,setting,value
CCc1cc(C(=O)NC2CC2)nn1Cc1ccnc(Br)c1 [Compound 220],"Plant response rating, Ryegrass, Italian",[1]; [14],5
same,"Plant response rating, Ryegrass, Italian",[1]; [15],5
same,"Plant response rating, Rice",[2],15
same,"Plant response rating, Wheat",[3]; [16],10
same,Wheat plant response rating,[3]; [17],0
same,"Plant response rating, Wheat",[3]; [18],15
same,Wheat plant response rating,[3]; [19],0
same,"Plant response rating, Lambsquarters",[4]; [16],60
same,Lambsquarters plant response rating,[4]; [17],98
same,"Plant response rating, Lambsquarters",[4]; [18],100
same,Lambsquarters plant response rating,[4]; [19],100
same,"Plant response rating, Ragweed",[5]; [16],80
same,Ragweed plant response rating,[5]; [17],65
same,"Plant response rating, Ragweed",[5]; [18],75
same,Ragweed plant response rating,[5]; [19],95
same,Pigweed plant response rating (0 to 100 scale),[6],100
same,Wheat plant response rating,[7]; [20],0
same,Wheat plant response rating,[7]; [21],90
same,"Plant response rating (scale of 0 to 100 where 0 is no effect and 100 is complete control), Kochia",[8],80
same,Kochia plant response rating,[8],85
same,"Plant response rating, Kochia",[8]; [14],90
same,"Plant response rating, Kochia",[8]; [15],90
same,"Plant response rating (scale of 0 to 100 where 0 is no effect and 100 is complete control), Lambsquarters",[9],30
same,Lambsquarters plant response rating,[9],10
same,"Plant response rating, Lambsquarters",[9]; [14],25
same,"Plant response rating, Lambsquarters",[9]; [15],20
same,"Plant response rating (scale of 0 to 100 where 0 is no effect and 100 is complete control), Crabgrass, Large",[10],5
same,"Crabgrass, Large plant response rating",[10],5
same,"Plant response rating, Crabgrass, Large",[10]; [14],10
same,"Plant response rating, Crabgrass, Large",[10]; [15],5
same,"Plant response rating, Corn","[11]; Preemergence, rate head not shown (block before 16 g ai/ha), scale 0 to 100, 100 is complete control",0
same,Corn plant response rating,[11]; [17],0
same,"Plant response rating, Corn",[11]; [18],5
same,Corn plant response rating,[11]; [19],40
same,"Plant response rating, Galium",[12]; [16],5
same,Galium plant response rating,[12]; [17],80
same,"Plant response rating, Galium",[12]; [18],80
same,Galium plant response rating,[12]; [19],98
same,"Plant response rating, Sedge, Umbrella",[13],70
CCCc1cc(C(=O)NC2CC2)nn1Cc1ccnc(OC(F)F)c1 [Compound 205],"Plant response rating, Ryegrass, Italian",[1]; [14],5
same,"Plant response rating, Ryegrass, Italian",[1]; [15],5
same,"Plant response rating, Rice",[2],0
same,Wheat plant response rating,[3]; [22],5
same,Wheat plant response rating,[3]; [17],15
same,"Plant response rating, Wheat",[3]; [18],85
same,Wheat plant response rating,[3]; [19],95
same,Lambsquarters plant response rating,[4]; [22],85
same,Lambsquarters plant response rating,[4]; [17],95
same,"Plant response rating, Lambsquarters",[4]; [18],100
same,Lambsquarters plant response rating,[4]; [19],100
same,Ragweed plant response rating,[5]; [22],80
same,Ragweed plant response rating,[5]; [17],100
same,"Plant response rating, Ragweed",[5]; [18],98
same,Ragweed plant response rating,[5]; [19],100
same,Pigweed plant response rating (0 to 100 scale),[6],100
same,Wheat plant response rating,[7]; [20],70
same,Wheat plant response rating,[7]; [21],90
same,"Plant response rating (scale of 0 to 100 where 0 is no effect and 100 is complete control), Kochia",[8],85
same,Kochia plant response rating,[8],90
same,"Plant response rating, Kochia",[8]; [14],95
same,"Plant response rating, Kochia",[8]; [15],95
same,"Plant response rating (scale of 0 to 100 where 0 is no effect and 100 is complete control), Lambsquarters",[9],85
same,Lambsquarters plant response rating,[9],85
same,"Plant response rating, Lambsquarters",[9]; [14],85
same,"Plant response rating, Lambsquarters",[9]; [15],90
same,"Plant response rating (scale of 0 to 100 where 0 is no effect and 100 is complete control), Crabgrass, Large",[10],5
same,"Crabgrass, Large plant response rating",[10],10
same,"Plant response rating, Crabgrass, Large",[10]; [14],65
same,"Plant response rating, Crabgrass, Large",[10]; [15],45
same,Corn plant response rating,[11]; [22],70
same,Corn plant response rating,[11]; [17],70
same,"Plant response rating, Corn",[11]; [18],80
same,Corn plant response rating,[11]; [19],98
same,Galium plant response rating,[12]; [22],100
same,Galium plant response rating,[12]; [17],90
same,"Plant response rating, Galium",[12]; [18],95
same,Galium plant response rating,[12]; [19],100
same,"Plant response rating, Sedge, Umbrella",[13],100
